Data as given in patent US20160000750A1, “COMBINATION OF EGCG OR METHYLATED EGCG AND A PDE INHIBITOR” (KYUSHU UNIVERSITY, NATIONAL UNIVERSITY CORPORATION, priority 2010, published 2016).

Assays:
[1] = test system: acute myeloid leukemia cell line, HL60; assay: Apoptosis induction by Annexin V PI double staining, HL60; format: cell-based, human; conditions: vardenafil 5 μM, EGCG 5 μM, 96 hours
Description: A propidium iodide (PI) staining solution was prepared by suspending PI (Sigma Corporation) in PBS at a concentration of 50 μg/mL and was used in investigation of the anti-cancer activity of a combination of EGCG and vardenafil by Annexin V PI double staining. The PBS used was prepared by dissolving 8.0 g of NaCl, 0.2 g of KCl, 1.15 g of Na2HPO4, and 0.2 g of KH2PO4 in 1 L of ultrapure water, followed by autoclave sterilization. The Annexin V Binding Buffer used was prepared with 10 mM HEPES, 140 mM NaCl, and 2.5 mM CaCl2 (Wako Pure Chemical Industries, Ltd.) to be pH 7.4, followed by filter sterilization.
Cell lines, U266 and HL60, adjusted to be 5×10^4 cells/mL (U266) and 1×10^4 cells/mL (HL60), respectively, in an RPMI 1640 medium supplemented with 1% FCS were seeded in a 96-well plate. […]
The plate was returned to the incubator immediately after the addition of EGCG, followed by culturing for 96 hours. […] The supernatant was removed, and the cells were suspended in an Annexin V Binding uffer, and the number of the cells was counted with a hemocytometer. […] Subsequently, 400 μL of an Annexin V Binding Buffer was added thereto from above, and the cells were counted with a flow cytometer, FACS Caliber (Becton, Dickinson and Company). After compensation, the Annexin V Alexa Fluor 488 Conjugate was measured at FL 1, and the cells deemed to be positive were determined as apoptotic cells. […]

[2] = test system: human prostate cancer cell line, PC3; assay: Trypan blue cell viability and viable cell count, PC3; format: cell-based; conditions: vardenafil 5 μM, EGCG 10 μM added after 2 hours, 96 hours
Description: A human prostate cancer cell line, PC3, was subcultured in an RPMI 1640 medium supplemented with 10% fetal calf serum (FCS) at 37° C. under vapor-saturated 5% CO2 conditions. The cells were cultured in the logarithmic growth phase. The RPMI 1640 medium used in the culture was prepared by suspending 10.4 g of an RPMI 1640 medium, 2.38 g of HEPES, 0.5 vial of Penicillin G Potassium for Injection 200000 Unit, 0.1 vial of Streptomycin Sulfate for Injection 1 g, and 2.0 g of NaHCO3 in 1 L of ultrapure water, followed by filter sterilization. Subsequently, the RPMI 1640 medium was supplemented with fetal calf serum (FCS) and was used in cell culture. A trypan blue staining solution was prepared by suspending trypan blue in PBS at a concentration of 1% and was used in investigation of the anti-cancer activity of a combination of EGCG and vardenafil by trypan blue assay. The PBS used was prepared by dissolving 8.0 g of NaCl, 0.2 g of KCl, 1.15 g of Na2HPO4, and 0.2 g of KH2PO4 in 1 L of ultrapure water, followed by autoclave sterilization. […] After 10 minutes, the number of the cells was counted with a hemocytometer. Unstained cells were deemed as viable cells, and the cell viability was determined as a ratio of the number of unstained cells in trypan blue staining to the total number of cells. […]

Substance: (−)-epigallocatechin-3-O-gallate [EGCG]
- apoptosis-inducing activity (apoptotic cell ratio) ([1]; Annexin V PI double staining): apoptosis was induced
- apoptosis-inducing activity under treatment with anti-67LR antibody ([1]; anti-67LR antibody MLuc5 20 μg/mL): completely cancelled
- cell viability (cell-killing activity) [2]: any cytotoxicity was not observed
